# Patent publication US11426436B2, “Bacteria-comprising compositions and methods of using the same for treating and/or preventing gastrointestinal, metabolic and/or other diseases” (priority 2015, dated 2022)
# Like-named read-outs stand apart in the source and are kept apart here.
# How the values were obtained:
# [1] = system: Intestinimonas strain AF211; assay: Antibiotic sensitivity (MIC) of Intestinimonas strain AF211; type: cell-based, Intestinimonas butyriciproducens
# Description: “Minimum inhibitory concentration” or “MIC” as used herein refers to the lowest concentration of an antimicrobial that will inhibit the visible growth of a microorganism after overnight incubation. Minimum inhibitory concentrations are important in diagnostic laboratories to confirm resistance of microorganisms to an antimicrobial agent and also to monitor the activity of new antimicrobial agents. An MIC is generally regarded as the most basic laboratory measurement of the activity of an antimicrobial agent against an organism.
# Rettedal et al. (Nature Comm. (2014), 5:4714) describe the use of antibiotics to isolate and culture bacteria from the human intestinal tract. However, this approach often results in antibiotic-resistant bacteria and these are undesired in formulations aimed for human or animal use.
# Strain AF211 had the following sensitivity to various antibiotics: […]
# [2] = system: Intestinimonas strain P1C2; details: against Intestinimonas strain P1C2, described as resistant; cited from earlier work
# [3] = Intestinimonas butyriciproducens, against strain AF211, read-out: MIC
compound,measurement,setting,value
NC[C@H]1O[C@H](O[C@H]2[C@H](O)[C@@H](O[C@H]3O[C@H](CO)[C@@H](O)[C@H](N)[C@H]3O)[C@H](N)C[C@@H]2N)[C@H](N)C[C@@H]1O [Tobramycin],MIC,[1]; [3],2 µg/mL
Cc1onc(-c2ccccc2)c1C(=O)N[C@@H]1C(=O)N2[C@@H]1SC(C)(C)[C@@H]2C(=O)O [Oxacillin],MIC,[1]; [3],0.38 µg/mL
CN[C@H](CC(C)C)C(=O)N[C@H]1C(=O)N[C@@H](CC(N)=O)C(=O)N[C@H]2C(=O)N[C@H]3C(=O)N[C@H](C(=O)N[C@H](C(=O)O)c4cc(O)cc(O)c4-c4cc3ccc4O)[C@H](O)c3ccc(c(Cl)c3)Oc3cc2cc(c3O[C@@H]2O[C@H](CO)[C@@H](O)[C@H](O)[C@H]2O[C@H]2C[C@](C)(N)[C@H](O)[C@H](C)O2)Oc2ccc(cc2Cl)[C@H]1O [Vancomycin],MIC,"[1]; Intestinimonas butyriciproducens, AF211",0.75 µg/mL
Teicoplanin,MIC,[1]; against strain AF211,0.047 µg/mL
CC[C@H]1OC(=O)[C@H](C)[C@@H](O[C@H]2C[C@@](C)(OC)[C@@H](O)[C@H](C)O2)[C@H](C)[C@@H](O[C@@H]2O[C@H](C)C[C@H](N(C)C)[C@H]2O)[C@](C)(O)C[C@@H](C)C(=O)[C@H](C)[C@@H](O)[C@]1(C)O [Erythromycin],MIC,"[1]; Intestinimonas butyriciproducens, against strain AF211, text value, read-out: MIC of erythromycin",1 µg/mL
same,MIC,[1]; [3],0.75 to 1 µg/mL
same,MIC of erythromycin,[2],32 µg/mL
